According to PMC5542762 (ChemistryOpen, 2017):
Where a name gives a salt, the structure may show the parent alone.

Legend:
EcTAL = molecular target: T1, EcTAL (Escherichia coli, UniProt P04968); experiment: HPLC of remaining L-threonine after FDAA derivatization; assay type: biochemical; settings: L-threonine 100 mM, pyridoxal phosphate 10 μM; Na2CO3-NaHCO3 100 mM, pH 9.0, 30 °C
T1 sequence (P04968 1-514): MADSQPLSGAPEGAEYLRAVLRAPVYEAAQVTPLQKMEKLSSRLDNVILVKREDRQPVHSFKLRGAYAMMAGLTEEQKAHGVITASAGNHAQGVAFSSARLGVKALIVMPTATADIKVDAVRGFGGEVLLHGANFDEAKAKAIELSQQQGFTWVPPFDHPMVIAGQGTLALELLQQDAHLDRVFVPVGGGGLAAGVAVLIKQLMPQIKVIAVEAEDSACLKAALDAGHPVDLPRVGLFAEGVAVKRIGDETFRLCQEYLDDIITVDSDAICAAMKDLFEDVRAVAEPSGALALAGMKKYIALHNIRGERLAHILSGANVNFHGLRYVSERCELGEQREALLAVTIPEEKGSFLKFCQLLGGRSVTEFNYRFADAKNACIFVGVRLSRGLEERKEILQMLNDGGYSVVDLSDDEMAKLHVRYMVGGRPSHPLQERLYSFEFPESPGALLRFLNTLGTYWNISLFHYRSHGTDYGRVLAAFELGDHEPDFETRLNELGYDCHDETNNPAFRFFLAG

PFDH = molecular target: T2, PFDH (Pseudomonas sp. 101, UniProt P33160); experiment: NAD+ reduction at […] nm, 96-well plate; assay type: biochemical; settings: sodium formate 20 mM, NAD+ 0.50 mM; Na2CO3-NaHCO3 100 mM, pH 9.0, room temperature
T2 sequence (P33160 2-401): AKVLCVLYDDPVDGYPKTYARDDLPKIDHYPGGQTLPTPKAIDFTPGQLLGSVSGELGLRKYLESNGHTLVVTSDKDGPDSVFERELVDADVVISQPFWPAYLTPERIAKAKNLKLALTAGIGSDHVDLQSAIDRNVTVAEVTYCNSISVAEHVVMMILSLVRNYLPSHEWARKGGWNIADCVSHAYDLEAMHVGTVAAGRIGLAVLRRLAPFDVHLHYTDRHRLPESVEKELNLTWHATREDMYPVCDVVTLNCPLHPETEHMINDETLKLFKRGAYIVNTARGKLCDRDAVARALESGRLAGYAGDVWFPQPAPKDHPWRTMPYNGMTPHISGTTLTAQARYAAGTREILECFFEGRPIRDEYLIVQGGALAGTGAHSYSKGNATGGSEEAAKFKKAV

SMILES | HPLC of remaining L-threonine after FDAA derivatization (EcTAL) | NAD+ reduction at 340 nm, 96-well plate (PFDH)
C[C@@H](O)[C@H](N)C(=O)O [L-threonine] | The activity of EcTAL toward L‐threonine was determined by measuring the decrease of threonine | –
O=CO [sodium formate] | – | the activity of the FDH toward the oxidation of formate were determined
